Measurements reported in PubChem BioAssay (NCI).
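In this assay, cells in 96-well plates receive the compound at five concentrations for 48 hours. Endpoints are linearly interpolated between the surrounding concentrations. The concentration for full growth arrest is given as TGI.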

Columns and labels:
Experiment in all cases: growth of human tumour cells (NCI), 48 h
[1] = tested on: M14 melanoma
[2] = tested on: CCRF-CEM leukemia
[3] = tested on: SF-539 CNS
[4] = tested on: M19-MEL melanoma
[5] = tested on: SR leukemia
[6] = tested on: NCI-H23 lung
[7] = tested on: A498 renal
[8] = tested on: SF-268 CNS
[9] = tested on: NCI-H460 lung
[10] = tested on: SNB-75 CNS
[11] = tested on: SK-MEL-28 melanoma
[12] = tested on: RXF 393 renal
[13] = tested on: SK-MEL-2 melanoma
[14] = tested on: DLD-1 colon
[15] = tested on: OVCAR-5 ovarian
[16] = tested on: U251 CNS
[17] = tested on: UACC-257 melanoma
[18] = tested on: UO-31 renal
[19] = tested on: XF 498 CNS
[20] = tested on: MOLT-4 leukemia
[21] = tested on: SK-OV-3 ovarian
[22] = tested on: HT29 colon
[23] = tested on: HL-60(TB) leukemia
[24] = tested on: ACHN renal
[25] = tested on: MALME-3M melanoma
[26] = tested on: TK-10 renal
[27] = tested on: SN12C renal
[28] = tested on: HCC-2998 colon
[29] = tested on: EKVX NSCLC
[30] = tested on: KM12 colon
[31] = tested on: LOX IMVI melanoma
[32] = tested on: DMS 114 small cell lung
[33] = tested on: NCI-H522 lung
[34] = tested on: OVCAR-4 ovarian
[35] = tested on: LXFL 529 NSCLC
[36] = tested on: HOP-62 NSCLC
[37] = tested on: UACC-62 melanoma
[38] = tested on: SNB-78 CNS
[39] = tested on: K-562 leukemia
[40] = tested on: HCT-116 colon
[41] = tested on: OVCAR-3 ovarian
[42] = tested on: SNB-19 CNS
[43] = tested on: NCI-H226 lung
[44] = tested on: IGROV1 ovarian
[45] = tested on: OVCAR-8 ovarian
[46] = tested on: HOP-92 NSCLC
[47] = tested on: KM20L2 colon
[48] = tested on: CAKI-1 renal
[49] = tested on: 786-0 renal
[50] = tested on: HCT-15 colon
[51] = tested on: SK-MEL-5 melanoma
[52] = tested on: SW-620 colon
[53] = tested on: A549 NSCLC
[54] = tested on: SF-295 CNS
[55] = tested on: DMS 273 small cell lung
[56] = tested on: RPMI-8226 leukemia
[57] = tested on: HOP-18 NSCLC
[58] = tested on: COLO 205 colon

Measured: TGI

COc1c(Cl)cc(Cl)cc1S(=O)O
> 100 µM: [1] | [2] | [3] | [4] | [5] | [6] | [7] | [8] | [9] | [10] | [11] | [12] | [13] | [14] | [15] | [16] | [17] | [18] | [19] | [20] | [21] | [22] | [23] | [24] | [25] | [26] | [27] | [28] | [29] | [30] | [31] | [32] | [33] | [34] | [35] | [36] | [37] | [38] | [39] | [40] | [41] | [42]

Nc1cc(C(=O)NC2C3CC4CC(C3)CC2C4)[nH]c(=S)n1 (stereo unspecified)
> 100 µM: [43] | [1] | [2] | [3] | [4] | [5] | [6] | [7] | [8] | [44] | [9] | [10] | [11] | [12] | [14] | [16] | [45] | [46] | [17] | [18] | [19] | [20] | [21] | [22] | [23] | [47] | [48] | [49] | [25] | [27] | [28] | [29] | [50] | [51] | [33] | [34] | [35] | [36] | [52] | [38] | [39] | [53] | [40] | [41] | [42]

COP(=O)(CC(=O)C1OC(C)(C)OC1C(O)COCc1ccccc1)OC (stereo unspecified)
> 100 µM: [43] | [1] | [2] | [3] | [4] | [5] | [6] | [7] | [8] | [44] | [9] | [10] | [11] | [12] | [54] | [13] | [14] | [15] | [16] | [45] | [46] | [17] | [18] | [20] | [22] | [23] | [24] | [47] | [48] | [49] | [25] | [26] | [27] | [28] | [55] | [29] | [30] | [50] | [31] | [32] | [51] | [34] | [35] | [56] | [36] | [57] | [37] | [52] | [38] | [39] | [58] | [53] | [40] | [41]
